In US20220242894A1, “Ruthenium (II) Complexes and Their Use as AntiCancer Agents” (Paris Sciences et Lettres, priority 2019, published 2022):
Read-outs that look alike come from different tables or passages of the source.

Key:
[1] = tested on: CT-26 (mouse colon adenocarcinoma); test: Cytotoxicity, fluorometric cell viability assay (resazurin), CT-26; assay type: cell-based; settings: read-out: IC50 (μM) CT-26
Protocol: (§1) HeLa and CT-26 cell lines were cultured in DMEM media (Gibco) supplemented with 10% of fetal calf serum (Gibco). CT-26 LUC cell line was cultured in DMEM media (Gibco) supplemented with 10% of fetal calf serum (Gibco) and 1% Genticin. RPE-1 cell line was cultured in DMEM/F-12 media (Gibco) supplemented with 10% of fetal calf serum. […] The resistance of A2780 cis was maintained by cisplatin treatment (1 μM) for one week every month. […] U87 cell line was cultured in MEM media (Gibco) supplemented with 10% of fetal calf serum (Gibco) and 1% of non-essential amino acid mixture (Gibco). Cell lines were complemented with 100 U/ml penicillin-streptomycin mixture (Gibco) and maintained in humidified atmosphere at 37° C. and 5% of CO2.
(§2) Cytotoxicity of the tested Ru compounds according to the present invention was assessed by a fluorometric cell viability assay using Resazurin (ACROS Organics). […] After 24 h, cells were treated with increasing concentrations of the compounds. Compounds dilutions were prepared as follows: 2.5 mM stock in DMSO was further diluted to 100 μM with media and then filtrated. After 48 h incubation, medium was removed, and 100 μl of complete medium containing resazurin (0.2 mg/ml final concentration) was added. […] IC50 values were then calculated using GraphPad Prism software.

[2] = tested on: CT-26 LUC (mouse colon adenocarcinoma stably expressing luciferase); test: Cytotoxicity, fluorometric cell viability assay (resazurin), CT-26 LUC; assay type: cell-based; settings: read-out: IC50 (μM) CT-26 luc
Protocol: as §1, §2

[3] = tested on: RPE-1 (normal retina pigmented epithelial); test: Cytotoxicity, fluorometric cell viability assay (resazurin), RPE-1; assay type: cell-based; settings: read-out: IC50 (μM) RPE-1
Protocol: as §1, §2

[4] = tested on: A2780 cis (human cisplatin resistant ovarian carcinoma); test: Cytotoxicity, fluorometric cell viability assay (resazurin), A2780 cis; assay type: cell-based; settings: read-out: IC50 (μM) A2780 cis
Protocol: as §1, §2

HeLa (human cervical) = test: Cytotoxicity, fluorometric cell viability assay (resazurin), HeLa; assay type: cell-based; settings: read-out: IC50 (μM) HeLa
Protocol: as §1, §2

[5] = tested on: A2780 (human ovarian carcinoma); test: Cytotoxicity, fluorometric cell viability assay (resazurin), A2780; assay type: cell-based; settings: read-out: IC50 (μM) A2780
Protocol: as §1, §2

[6] = tested on: A2780 ADR (human doxorubicin resistant ovarian carcinoma); test: Cytotoxicity, fluorometric cell viability assay (resazurin), A2780 ADR; assay type: cell-based
Protocol: as §1, §2

[7] = Encapsulation in polysorbate 80 (film rehydration); assay type: physicochemical; settings: in 50 mg/mL of polysorbate 80 in PBS, after 0.20 μm filtration
Protocol: The solvent was removed by rotary evaporation at 40° C. The red film was then resuspended in PBS (2 mL) at room temperature. The solution was finally sterile filtered on a 0.20 μm nylon membrane (Corning© 431224) to yield a clear red solution.
50 μL of the sample was diluted in 100 μL of acetonitrile and the absorbance was recorded at 480 nm in 96 wells plates from Corning© (Fisher Scientific 15329740) using a SpectraMax M5 microplate Reader.
Encapsulation efficiency was calculated by comparing the absorbance of the solution before and after filtration using the following equation.
To ensure its repeatability, the procedure was performed in triplicate.

solid Ehrlich tumour [8] = test: Survival of mice bearing solid Ehrlich tumour; assay type: in vivo; settings: 5 mg/kg i.p. on days 1 and 7, tumour-bearing NMRI mice
From the text: A solid Ehrlich tumour was purchased from the Research Institute for Pharmacy and Biochemistry (VUFB) in Prague, and then maintained in NMRI mice by periodical transplantations. […] On the tenth day, half of the mice were sacrificed, and their tumours were weighed. The remaining animals were left in order to observe their survival.
One-Way Analysis of Variance with post-hoc Dunnetts's multiple comparison test was used to detect differences in tumour weight. Kaplan-Meier curves (FIG. 4) and logrank tests were used to compare survival times in groups. Here, the level of significance was α=0.05.

solid Ehrlich tumour [9] = test: Tumour weight, solid Ehrlich tumour, day 10; settings: 5 mg/kg i.p. on days 1 and 7, measured on day 10
From the text: Values are the means±SEM (n=7 in each group).
A solid Ehrlich tumour was purchased from the Research Institute for Pharmacy and Biochemistry (VUFB) in Prague, and then maintained in NMRI mice by periodical transplantations. […] On the tenth day, half of the mice were sacrificed, and their tumours were weighed.
One-Way Analysis of Variance with post-hoc Dunnetts's multiple comparison test was used to detect differences in tumour weight.

HeLa cells [10] = test: Annexin V/PI assay (cell death mechanism); settings: 10 μM
From the text: For this experiment, Annexin V and PI staining method were utilised on HeLa cells.^15 Staurosporin, a known inducer of apoptosis, was used as a positive control.

[11] = Dose-finding study, maximum tolerated dose; settings: healthy mice, i.p., weight loss limit 10% over 14 days
[12] = tested on: glycolysis in CT-26 cells; test: Seahorse glycolytic stress test; assay type: cell-based, mouse; settings: CT-26, 1 μM, 24 h incubation
Protocol: (§3) The preference of compound 1 to accumulate in the nucleus and mitochondria in HeLa cells inspired further studies on metabolic pathways that could be affected by the compound. For this purpose, Seahorse XF Analyzer was used. […] The effect on the other metabolic pathways, i.e. glycolysis and the possible metabolic modulation of the three primary fuel pathways, i.e. glucose, glutamine and fatty acid were then examined.
CT-26 cells were seeded in Seahorse XFe96 well plates at a density of 30,000 cells/well in 80 μL. […] After 24 h of incubation, the regular media was removed and the cells were washed thrice using bicarbonate, glucose and serum free DMEM, supplemented 1% glutamine and 1% sodium pyruvate and incubated in a non-CO2 incubator at 37° C. for an hour. Glycolytic stress test was run using glucose, 10 mM, Oligomycin, 1 μM and 2-Deoxyglucose, 50 mM in ports A, B and C respectively using Seahorse XFe96 Extracellular Flux Analyzer.

[13] = tested on: fuel pathways (glucose, glutamine, fatty acid) in CT-26 cells; test: Seahorse fuel flex assay; assay type: cell-based, mouse; settings: CT-26, 1 μM, 24 h incubation
Protocol: as §3
CT-26 cells were seeded in Seahorse XFe96 well plates at a density of 30,000 cells/well in 80 μL. […] After 24 h of incubation, the regular media was removed and the cells were washed thrice using bicarbonate, and serum free DMEM, supplemented with 1.8 mg/mL glucose, 1% glutamine and 1% sodium pyruvate and incubated in a non-CO2 incubator at 37° C. for an hour. Fuel flex assay for the different fuel pathways viz. glucose, glutamine and fatty acid was studied by measuring the basal oxygen consumption rates and that after addition of the inhibitor of the target pathway in port A and a mixture of the inhibitors of the other two pathways in port B. This gave a measure of the dependency of the cells on a fuel pathway. To study the capacity of a certain fuel pathway, the sequence of addition of the inhibitors was reversed. In port A was added the mixture of inhibitors for the other pathways and in port B was added the inhibitor for the target pathway. […]

HeLa cells [14] = test: Ruthenium cellular uptake and subcellular distribution by ICP-MS, HeLa; assay type: cell-based, human; settings: 5 μM
Protocol: All the treatments were set up at the same concentration for comparative purposes. The medium was then removed, the cells washed with PBS and trypsinized. […] The organelles were then isolated via differential centrifugation. To separate lysosomes, a Lysosome Isolation Kit (Cat. Nr: LYSISO1, Sigma Aldrich) as well as the manufacturer procedure with minor modification was used. Briefly, the collected pellets were redissolved in 2.0 ml of extraction buffer added with proteases cocktail (delivered with the kit) and incubated for 15 min on ice. The samples were then homogenized with a pre-chilled dounce homogenizer (7 ml, tight pestle A, 22 strokes) and centrifuged at 1000 g for 10 min at 4° C. […] These steps of the isolation procedure were monitored under phase contrast microscope on Menzel-Glaser coverslips (Olympus IX81 microscope).
The supernatant was transferred in a fresh tube and centrifuged at 14000 g for 30 min at 4° C. […] The intact lysosomal content was proofed with Neutral-Red Reagent (delivered in the kit) with dual-wavelength absorbance mode at 460 and 510 nm over a kinetic of 3 minutes in a Spectramax M5 microplate reader (Molecular Devices). […]
Ruthenium content of the samples was determined by means of a 7-step serial dilution in the range between 0 and 300 ppb in Ru (R>0.99) with a background equivalent concentration of BEC: 6.3 ppt and a detection limit of DL: 17 ppt. […]

[15] = tested on: MRC-5 (normal lung fibroblasts); test: Ruthenium cellular accumulation by ICP-MS, MRC5
Protocol: All the fractions (mitochondria, lysosomes and nucleus) were isolated from the same cellular sample for direct comparative purposes. The supernatant phases discarded during the isolation of nuclei, lysosomes and mitochondria procedures were collected and formed the “residual” fraction. An aliquot of crude lysate after homogenization, nuclear, mitochondrial (pellet lysed via freeze and thaw cycles followed by 20 minutes incubation in ultrasonic bath), lysosomal and residual fraction was each used for protein quantification using the Bradford method. The isolated samples were then lyophilized on an Alpha 2-4 LD plus (CHRIST). The resulting samples underwent chemical digestion with 10 mL of a 2% nitrohydrochloric acid solution for 24 h. The resulting suspensions were filtered on 0.20 μm non-pyrogenic sterile Filtropur filters (Sarstedt) and the obtained samples were injected in ICP-MS.
Ruthenium content of the samples was determined by means of a 7-step serial dilution in the range between 0 and 300 ppb in Ru (R>0.99) with a background equivalent concentration of BEC: 6.3 ppt and a detection limit of DL: 17 ppt. […] A solution of Indium (500 ppb) and Tungsten (500 ppb) was used as internal standard.

[16] = tested on: mitochondrial metabolism (oxidative phosphorylation) in CT-26 cell line; test: Seahorse Mitostress test; assay type: cell-based, mouse; settings: CT-26, 1 μM, 24 h incubation
Protocol: as §3
CT-26 cells were seeded in Seahorse XFe96 well plates at a density of 30,000 cells/well in 80 μL. […] After 24 h of incubation, the regular media was removed and the cells were washed thrice using bicarbonate and serum free DMEM, supplemented with glucose, 1.8 mg/mL; 1% glutamine and 1% sodium pyruvate and incubated in a non-CO2 incubator at 37° C. for 1 h. Mitostress assay was run using Oligomycin, 1 μM, FCCP 1 μM and mixture of Antimycin-A/Rotenone 1 μM each in ports A, B and C respectively using Seahorse XFe96 Extracellular Flux Analyzer.

[17] = Mus musculus, CT26, CT-26, 48 h incubation
[18] = Mus musculus, CT26, CT-26 luc, 48 h incubation
[19] = Homo sapiens, RPE-1 normal cells, 48 h incubation
[20] = Homo sapiens, A2780cis, A2780 cis (cisplatin resistant), 48 h incubation
[21] = Homo sapiens, A2780, 48 h incubation
[22] = Homo sapiens, A2780 ADR, 48 h; read-out: IC50 (μM) A2780 ADR
[23] = RPE-1 normal cells, 48 h incubation
[24] = A2780 cis (cisplatin resistant), 48 h incubation
[25] = A2780 ADR (doxorubicin resistant), 48 h incubation; read-out: IC50 (μM) A2780 ADR

Row | Molecule | IC50 [1, 17] [µM] | IC50 [2, 18] [µM] | IC50 [3, 19] [µM] | IC50 [4, 20] [µM] | IC50 (HeLa (human cervical); Homo sapiens, 48 h incubation) [µM] | IC50 [5, 21] [µM] | IC50 [6, 22] [µM] | other results
1 | CC(C)(C)c1ccc(O)c(O)c1 [4-tertbutylcatechol] | 9.94 ± 0.63 | 9.72 ± 0.67 | 55.1 ± 4.64 | 14.6 ± 0.81 | 93.1 ± 9.8 | 9.14 ± 0.7 | 12.9 ± 1.2 | –
2 | Cc1ccc(O)c(O)c1 [4-methylcatechol] | 34.4 ± 1.41 | 33.3 ± 3.4 | > 100 | 34.6 ± 1.49 | > 100 | 15.2 ± 1 | 29.3 ± 1.96 | –
3 | Cc1occc(=O)c1O [Maltol, 3-Hydroxy-2-methyl-4H-pyran-4-one] | > 100 | > 100 | > 100 | > 100 | 74 ± 14.6 | > 100 | > 100 | –
4 | Cc1cccc(O)c1O [3-methylcatechol] | 17.5 ± 0.73 | 12.1 ± 1.4 | > 100 | 14.7 ± 0.69 | > 100 | 9.99 ± 1.26 | 2.71 ± 0.82 | –
5 | [Ru(DIP)2(3-Methoxysq)](PF6) [Compound 4] | – | – | – | – | – | – | – | concentration dissolved [7]: 840 ± 60 µg/mL
6 | [Ru(DIP)2(Tetrabromocat)] [Compound 5] | – | – | – | – | – | – | – | IC50 ([1]; CT-26, 48 h incubation): 10.5 ± 0.5 µM; IC50 ([2]; CT-26 luc, 48 h incubation): 11.6 ± 0.7 µM; IC50 [3, 23]: 23.2 ± 2.5 µM; IC50 [4, 24]: 17.2 ± 1.4 µM; IC50 (HeLa (human cervical); 48 h incubation): 10.5 ± 0.25 µM; IC50 ([5]; A2780, 48 h incubation): 10.2 ± 0.14 µM; IC50 [6, 25]: 15 ± 0.75 µM
7 | N.N.[Cl][Pt][Cl] [Cisplatin] | – | – | – | – | – | – | – | geometric mean of overall survival (solid Ehrlich tumour [8]): 33.7 days; IC50 ([1]; CT-26, 48 h incubation): 2.6 ± 0.18 µM; IC50 ([2]; CT-26 luc, 48 h incubation): 2.42 ± 0.23 µM; effect on tumour growth (tumour weight) (solid Ehrlich tumour [9]): significant inhibitory effect; IC50 [3, 23]: 30.2 ± 5.11 µM; IC50 [4, 24]: 18.3 ± 2.92 µM; IC50 (HeLa (human cervical); 48 h incubation): 9.28 ± 0.2 µM; IC50 ([5]; A2780, 48 h incubation): 4 ± 0.76 µM; IC50 [6, 25]: 8.32 ± 0.71 µM
8 | COc1cccc2c1C(=O)c1c(O)c3c(c(O)c1C2=O)C[C@@](O)(C(=O)CO)C[C@@H]3O[C@H]1C[C@H](N)[C@H](O)[C@H](C)O1 [Doxorubicin] | 0.082 ± 0.003 | – | 0.89 ± 0.17 | 0.54 ± 0.04 | 0.34 ± 0.02 | 0.19 ± 0.03 | 5.94 ± 0.58 | –
9 | [Ru(DIP)2(Sq)](PF6) [Compound 1] | – | – | – | – | – | – | – | induction of apoptosis/necrosis (HeLa cells [10]; 30 min after treatment): induces apoptosis; type of cell death (HeLa cells [10]; 4 h or 24 h incubation): apoptosis as a main type of the cell death; maximum tolerated dose (MTD) [11]: 15 mg/kg of body weight; glycolysis of the cells [12]: not affected; effect on the 3 primary fuel pathways [13]: no direct effect; subcellular accumulation of ruthenium (HeLa cells [14]; 2 h, fractionated): preferential accumulation inside the nucleus; cellular uptake (internalization) (HeLa cells [14]; after 2 h): Near complete internalization; compound taken up by healthy cells [15]: less than 25%; ATP production [16]: inhibited; mitochondrial respiration [16]: severely impaired
10 | Oc1c(O)c(Br)c(Br)c(Br)c1Br [Tetrabromocatechol] | – | – | – | – | – | – | – | IC50 ([1]; Mus musculus, CT26, 48 h): 5.53 ± 0.37 µM; IC50 ([2]; Mus musculus, CT26, 48 h): 3.8 ± 0.34 µM; IC50 ([3]; Homo sapiens, RPE-1, 48 h): 13.5 ± 1.7 µM; IC50 ([4]; Homo sapiens, A2780cis, 48 h): 13.6 ± 0.88 µM; IC50 (HeLa (human cervical); Homo sapiens, 48 h): 29.9 ± 1.6 µM; IC50 ([5]; Homo sapiens, A2780, 48 h): 8.75 ± 0.2 µM; IC50 ([6]; Homo sapiens, A2780 ADR, 48 h, read-out: IC50 (μM) A2780 ADR): 14.4 ± 1.18 µM
11 | COc1cccc(O)c1O [3-methoxycatechol] | 45.7 ± 4.21 | 36.4 ± 6.28 | > 100 | 36.5 ± 1.94 | 56.2 ± 4.18 | 18.7 ± 1.17 | 30.1 ± 1.35 | –
12 | [Cl-].[Cl-].[Ru+2].c1ccc(-c2ccnc3c2ccc2c(-c4ccccc4)ccnc23)cc1.c1ccc(-c2ccnc3c2ccc2c(-c4ccccc4)ccnc23)cc1 [Ru(DIP)2Cl2] | – | – | – | – | – | – | – | IC50 ([1]; CT-26, 48 h incubation): 9.2 ± 1.22 µM; IC50 ([2]; CT-26 luc, 48 h incubation): 6.65 ± 0.5 µM; IC50 [3, 23]: 3.13 ± 0.07 µM; IC50 [4, 24]: 6.36 ± 0.57 µM; IC50 (HeLa (human cervical); 48 h incubation): 15 ± 0.4 µM; IC50 ([5]; A2780, 48 h incubation): 4.69 ± 0.14 µM; IC50 [6, 25]: 78.3 ± 4.9 µM
13 | O=[N+]([O-])c1ccc(O)c(O)c1 [4-nitrocatechol] | 17.5 ± 1.02 | 15.3 ± 1 | 45 ± 19 | > 100 | > 100 | 30.9 ± 2.05 | 61.5 ± 3.63 | –
14 | Ru(DIP)2(4-Nitrocat) [Compound 8] | – | – | – | – | – | – | – | IC50 ([1]; CT-26, 48 h incubation): 7.61 ± 0.11 µM; IC50 ([2]; CT-26 luc, 48 h incubation): 9.01 ± 0.19 µM; IC50 [3, 23]: 16.6 ± 0.98 µM; IC50 [4, 24]: 16.4 ± 2.04 µM; IC50 (HeLa (human cervical); 48 h incubation): 10 ± 0.44 µM; IC50 ([5]; A2780, 48 h incubation): 12.4 ± 0.8 µM; IC50 [6, 25]: 18.6 ± 2.02 µM
15 | Oc1ccccc1O [catechol] | 16 | 11.5 ± 0.4 | > 100 | 56 ± 9.46 | > 100 | 22.4 ± 5.83 | > 100 | –
